Earlier results on two compounds are cited in patent publication US5266487A, “Apparatus for the treatment of lignocellulosic materials” (Knobbe, Martens, Olson & Bear, priority 1992, dated 1993).

Read-outs that look alike come from different tables or passages of the source.

This series has as its target alcohol oxidase (methanol oxidase), preferred enzyme from Hansenula polymorpha ATCC 34438 (Pichia angusta, UniProt P04841).

Sequence of alcohol oxidase (methanol oxidase), preferred enzyme from Hansenula polymorpha ATCC 34438 (P04841 whole entry): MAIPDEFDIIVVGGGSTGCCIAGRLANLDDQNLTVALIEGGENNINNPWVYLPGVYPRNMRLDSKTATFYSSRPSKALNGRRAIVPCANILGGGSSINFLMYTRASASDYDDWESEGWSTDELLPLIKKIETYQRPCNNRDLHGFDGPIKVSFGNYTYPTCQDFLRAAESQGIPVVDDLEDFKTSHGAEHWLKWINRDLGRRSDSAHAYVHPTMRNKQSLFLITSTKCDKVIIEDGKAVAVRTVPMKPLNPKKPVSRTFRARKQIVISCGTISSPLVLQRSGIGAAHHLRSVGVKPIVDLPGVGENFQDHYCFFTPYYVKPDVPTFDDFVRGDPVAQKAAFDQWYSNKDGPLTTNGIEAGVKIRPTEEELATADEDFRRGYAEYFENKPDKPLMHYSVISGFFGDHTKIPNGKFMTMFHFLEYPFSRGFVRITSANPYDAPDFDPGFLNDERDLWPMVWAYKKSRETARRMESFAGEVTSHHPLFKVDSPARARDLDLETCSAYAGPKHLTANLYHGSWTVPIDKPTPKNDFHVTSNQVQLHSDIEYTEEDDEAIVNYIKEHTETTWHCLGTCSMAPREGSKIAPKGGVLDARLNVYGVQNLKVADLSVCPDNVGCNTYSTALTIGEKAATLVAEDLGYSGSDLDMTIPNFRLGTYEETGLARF

In the case of `CO` [methanol], the Km (read-out: Km methanol, see Van Dijken et al., Arch. Microbiol. 111, 137 (1976)) was 2000 µM.
With `O=O` [oxygen], the Km (read-out: Km oxygen, see Van Dijken et al., Arch. Microbiol. 111, 137 (1976)) is 400 µM.

The term Km denotes the substrate concentration at which the rate is half of its maximum.
